Consider 25 compounds from patent publication US20240228458A1, “PYRIMIDINE DERIVATIVE HAVING PROTEIN KINASE INHIBITORY ACTIVITY, AND THERAPEUTIC PHARMACEUTICAL COMPOSITION COMPRISING SAME” (THERAPEX CO., LTD., priority 2021, published 2024).

Common to all, as to format: cell-based
The subject of assay [1] is Ba/F3 cells expressing EGFR-wt. Briefly: Growth inhibition (GI50) of Ba/F3 cells expressing EGFR-wt, Celltiter glo. The settings on record: Mus musculus, BaF3, 72 h. As to the method: (§1) In this experimental example, a determination was made as to whether the compounds prepared in Examples 1-283 have the ability to inhibit the growth of Ba/F3 cells expressing EGFR-wt, del19/T790M/C797S (EGFR-DTC), L858R/T790M/C797S (EGFR-LTC), del19/T790M (EGFR-DT), and L858R/T790M (EGFR-LT) variants.
(§2) The parental Ba/F3 cell line is a population of cells that are not introduced with EGFR variants. Specifically, 100 μl of a cell line expressing each variant was plated in a 96-well plate at a density of 100,000 cells/ml. 10-point, 4-fold serial dilutions of each compound were prepared, starting at 2 mM. After 4 h, 0.5 μl of the compound (0.5% DMSO) was added, followed by incubation at 37° C. and 5% CO2 for 72 h. After incubation, the number of viable cells was measured using a Celltiter glo assay kit (Promega) and the GI50 of the compound was determined. The term “GI50” refers to the molar concentration (μM) of the compound required for 50% growth inhibition of cells.
(In general: Cellular ATP, detected with luciferase, serves as a proxy for viable cell number.)

In assay [2] the test system is Ba/F3 cells expressing del19/T790M/C797S (EGFR-DTC). In words: Growth inhibition (GI50) of Ba/F3 cells expressing del19/T790M/C797S (EGFR-DTC), Celltiter glo. The settings on record: Mus musculus, BaF3, 72 h. As for the experimental part:
as §1, §2

In another assay the test system is parental Ba/F3 cell line. Briefly: Growth inhibition (GI50) of the parental Ba/F3 cell line (not introduced with EGFR variants), Celltiter glo. Particulars: Mus musculus, BaF3, 72 h, parental Ba/F3 cells. As to the method:
as §2

Assay [3] relates to Ba/F3 cells expressing L858R/T790M/C797S (EGFR-LTC). Briefly: Growth inhibition (GI50) of Ba/F3 cells expressing L858R/T790M/C797S (EGFR-LTC), Celltiter glo. The settings on record: Mus musculus, BaF3, 72 h. As for the experimental part:
as §1, §2

As usually defined, the GI50 is the concentration giving 50% growth inhibition. Consider `CCN1CCN(c2ccc(Nc3ncc(Cl)c(Nc4ccccc4NS(C)(=O)=O)n3)c(OC)n2)CC1` [Example 1], for which the GI50 in assay [1] was 500 to 2000 nM; in assay [2], 100 to 500 nM; in the assay with parental Ba/F3 cell line it was 2000 to 10000 nM.
Regarding `COc1cc(N2CCC(N3CCN(C)CC3)CC2)c(C)cc1Nc1ncc(Cl)c(Nc2ccccc2NS(C)(=O)=O)n1` [Example 2, N-(2-((5-chloro-2-((2-methoxy-5-methyl-4-(4-(4-methylpiperazin-1-yl)piperidin-1-yl)phenyl)amino)pyrimidin-4-yl)amino)phenyl)methanesulfonamide], the GI50 in assay [1] fell in the range of 100 to 500 nM; in assay [2], 1 to 25 nM; with parental Ba/F3 cell line, 500 to 2000 nM.
For `CN1CCN(C2CCN(c3ccc(Nc4ncc(Cl)c(Nc5ccccc5NS(C)(=O)=O)n4)cn3)CC2)CC1` [Example 3, N-(2-((5-chloro-2-((6-(4-(4-methylpiperazin-1-yl)piperidin-1-yl)pyridin-3-yl)amino)pyrimidin-4-yl)amino)phenyl)methanesulfonamide], in that order: 500 to 2000 nM, 100 to 500 nM and 500 to 2000 nM.
For the compound `CN1CCN(C2CCN(c3ccc(Nc4ncc(Cl)c(Nc5ccccc5NS(C)(=O)=O)n4)c(OCC(F)(F)F)n3)CC2)CC1` [Example 4, N-(2-((5-chloro-2-((6-(4-(4-methylpiperazin-1-yl)piperidin-1-yl)-2-(2,2,2-trifluoroethoxy)pyridin-3-yl)amino)pyrimidin-4-yl)amino)phenyl)methanesulfonamide], the GI50 fell in the range of 2000 to 10000 nM in assay [1], 500 to 2000 nM in assay [2] and 2000 to 10000 nM with parental Ba/F3 cell line.
Turning to `CN1CCN(C2CCN(c3ccc(Nc4ncc(Cl)c(Nc5ccccc5NS(C)(=O)=O)n4)cc3F)CC2)CC1` [Example 5, N-(2-((5-chloro-2-((3-fluoro-4-(4-(4-methylpiperazin-1-yl)piperidin-1-yl)phenyl)amino)pyrimidin-4-yl)amino)phenyl)methanesulfonamide], the GI50 in assay [1] fell in the range of 100 to 500 nM; in assay [2], 1 to 25 nM; with parental Ba/F3 cell line, 25 to 100 nM.
In the case of `COc1cc(N2CCC(N3CCN(C)CC3)CC2)c(Cl)cc1Nc1ncc(Cl)c(Nc2ccccc2NS(C)(=O)=O)n1` [Example 7, N-(2-((5-chloro-2-((5-chloro-2-methoxy-4-(4-(4-methylpiperazin-1-yl)piperidin-1-yl)phenyl)amino)pyrimidin-4-yl)amino)phenyl)methanesulfonamide], the GI50 in assay [1] lay in the range of 100 to 500 nM; in assay [2], 100 to 500 nM; in assay [3], 100 to 500 nM; in the assay with parental Ba/F3 cell line, 500 to 2000 nM.
Regarding `COc1nc(N2CCC(N(C)C)C2)ccc1NC1=[N+]=C(N(c2ccccc2NS(C)(=O)=O)S(C)(=O)=O)C(Cl)=CN1` (centres unmarked) [Example 8, N-(5-chloro-2-((6-(3-(dimethylamino)pyrrolidin-1-yl)-2-methoxypyridin-3-yl)amino)pyrimidin-4-yl)-N-(2-(methylsulfonamido)phenyl)methanesulfonamide], the GI50 in assay [1] fell in the range of 2000 to 10000 nM; in assay [2], 100 to 500 nM; in assay [3] it was 500 to 2000 nM; in the assay on parental Ba/F3 cell line it was 2000 to 10000 nM.
For `COc1cc(N2CCC(N3CCN(C)CC3)CC2)c(C)cc1Nc1ncc(Cl)c(Nc2ccc(F)cc2NS(C)(=O)=O)n1` [Example 12], the results for the GI50 (in assay [1]; in assay [2]; with parental Ba/F3 cell line) were 100 to 500 nM, 25 to 100 nM and 2000 to 10000 nM, respectively.
For `CS(=O)(=O)Nc1cc(F)ccc1Nc1nc(Nc2ccc(N3CCOCC3)nc2)ncc1Cl` [Example 13] the same measures were 500 to 2000 nM, 100 to 500 nM and 500 to 2000 nM.
With `CN1CCN(C2CCN(c3ccc(Nc4ncc(Cl)c(Nc5ccc(F)cc5NS(C)(=O)=O)n4)cn3)CC2)CC1` [Example 14], the 50% growth inhibitory concentration (GI50) in assay [1] was more than 10000 nM; in assay [2] it was 2000 to 10000 nM; in the assay with parental Ba/F3 cell line, 2000 to 10000 nM.
For the compound `CN1CCN(C2CCN(c3ncc(Nc4ncc(Cl)c(Nc5ccc(F)cc5NS(C)(=O)=O)n4)cc3F)CC2)CC1` [Example 16], the GI50 in assay [1] lay within 2000 to 10000 nM; in assay [2], 500 to 2000 nM; with parental Ba/F3 cell line, 500 to 2000 nM.
Turning to `COc1nc(N2CCC(N3CCN(C)CC3)CC2)ccc1Nc1ncc(Cl)c(Nc2ccc(F)cc2NS(C)(=O)=O)n1` [Example 17, N-(2-((5-chloro-2-((2-methoxy-6-(4-(4-methylpiperazin-1-yl)piperidin-1-yl)pyridin-3-yl)amino)pyrimidin-4-yl)amino)-5-fluorophenyl)methanesulfonamide], the GI50 in assay [1] fell in the range of 2000 to 10000 nM; in assay [2] it was 500 to 2000 nM; with parental Ba/F3 cell line, 2000 to 10000 nM.
In the case of `COc1cc(N2CCC(N3CCN(C)CC3)CC2)c(C)cc1Nc1ncc(Cl)c(Nc2ccccc2C(F)(F)F)n1` [Example 46], the GI50 (in assay [1]; in assay [2]; in the assay with parental Ba/F3 cell line) was 2000 to 10000 nM each time.
Take `COc1cc(N2CCC(N3CCN(C)CC3)CC2)ccc1Nc1ncc(Cl)c(Nc2ccccc2C(F)(F)F)n1` [Example 47]: the GI50 in assay [1] lay within 2000 to 10000 nM; in assay [2] it was 500 to 2000 nM; in the assay on parental Ba/F3 cell line, 2000 to 10000 nM.
`CCN1CCN(c2ccc(Nc3ncc(Cl)c(Nc4ccccc4C(F)(F)F)n3)cc2)CC1` [Example 48]: the GI50 in assay [1] is 2000 to 10000 nM; in assay [2], 500 to 2000 nM; with parental Ba/F3 cell line, 2000 to 10000 nM.
As to `FC(F)(F)c1ccccc1Nc1nc(Nc2ccc(N3CCOCC3)nc2)ncc1Cl` [Example 49], the GI50 was in the range of 2000 to 10000 nM in assay [1], 500 to 2000 nM in assay [2] and 2000 to 10000 nM with parental Ba/F3 cell line.
As to `CNS(=O)(=O)c1ccccc1Nc1nc(Nc2cc(C)c(N3CCC(N4CCN(C)CC4)CC3)cc2OC)ncc1Cl` [Example 50, 2-((5-chloro-2-((2-methoxy-5-methyl-4-(4-(4-methylpiperazin-1-yl)piperidin-1-yl)phenyl)amino)pyrimidin-4-yl)amino)-N-methylbenzenesulfonamide], the GI50 in assay [1] is 500 to 2000 nM; in assay [2], 100 to 500 nM; in the assay with parental Ba/F3 cell line it was 500 to 2000 nM.
As to `CNS(=O)(=O)c1ccccc1Nc1nc(Nc2ccc(N3CCC(N4CCN(C)CC4)CC3)cc2OC)ncc1Cl` [Example 51, 2-((5-chloro-2-((2-methoxy-4-(4-(4-methylpiperazin-1-yl)piperidin-1-yl)phenyl)amino)pyrimidin-4-yl)amino)-N-methylbenzenesulfonamide], the GI50 was in the range of 2000 to 10000 nM in assay [1], 100 to 500 nM in assay [2] and 2000 to 10000 nM with parental Ba/F3 cell line.
Take `CNS(=O)(=O)c1ccccc1Nc1nc(Nc2ccc(N3CCC(N4CCN(C)CC4)CC3)nc2)ncc1Cl` [Example 52, 2-((5-chloro-2-((6-(4-(4-methylpiperazin-1-yl)piperidin-1-yl)pyridin-3-yl)amino)pyrimidin-4-yl)amino)-N-methylbenzenesulfonamide]: the GI50 in assay [1] is 100 to 500 nM; in assay [2], 25 to 100 nM; in the assay on parental Ba/F3 cell line it was 100 to 500 nM.
For `CNS(=O)(=O)c1ccccc1Nc1nc(Nc2ccc(N3CCOCC3)nc2)ncc1Cl` [Example 53, 2-((5-chloro-2-((6-morpholinopyridin-3-yl)amino)pyrimidin-4-yl)amino)-N-methylbenzenesulfonamide], the GI50 (in assay [1]; in assay [2]; with parental Ba/F3 cell line) was 100 to 500 nM in each case.
Regarding `CCN1CCN(c2ccc(Nc3ncc(Cl)c(Nc4ccccc4S(=O)(=O)NC)n3)c(OC)n2)CC1` [Example 54, 2-((5-chloro-2-((6-(4-ethylpiperazin-1-yl)-2-methoxypyridin-3-yl)amino)pyrimidin-4-yl)amino)-N-methylbenzenesulfonamide], the GI50 in assay [1] lay in the range of 100 to 500 nM; in assay [2], 2000 to 10000 nM; in the assay on parental Ba/F3 cell line it was 2000 to 10000 nM.
On to `CNS(=O)(=O)c1ccccc1Nc1nc(Nc2ccc(N3CCC(N4CCN(C)CC4)CC3)nc2OC)ncc1Cl` [Example 55, 2-((5-chloro-2-((2-methoxy-6-(4-(4-methylpiperazin-1-yl)piperidin-1-yl)pyridin-3-yl)amino)pyrimidin-4-yl)amino)-N-methylbenzenesulfonamide], for which the figures for the 50% growth inhibitory concentration (GI50) (in assay [1]; in assay [2]; in the assay on parental Ba/F3 cell line) were 500 to 2000 nM, 500 to 2000 nM and 100 to 500 nM, respectively.
For `COc1cc(N2CCC(N3CCN(C)CC3)CC2)c(C)cc1Nc1ncc(Cl)c(Nc2ccccc2S(=O)(=O)NC2CC2)n1` [Example 59, 2-((5-chloro-2-((2-methoxy-5-methyl-4-(4-(4-methylpiperazin-1-yl)piperidin-1-yl)phenyl)amino)pyrimidin-4-yl)amino)-N-cyclopropylbenzenesulfonamide], the GI50 (in assay [1]; in assay [2]; in the assay with parental Ba/F3 cell line) was 500 to 2000 nM in each case.
Take `CN1CCN(C2CCN(c3ccc(Nc4ncc(Cl)c(Nc5ccccc5S(=O)(=O)NC5CC5)n4)cc3F)CC2)CC1` [Example 60, 2-((5-chloro-2-((3-fluoro-4-(4-(4-methylpiperazin-1-yl)piperidin-1-yl)phenyl)amino)pyrimidin-4-yl)amino)-N-cyclopropylbenzenesulfonamide]: the GI50 lay within 100 to 500 nM in assay [1], 25 to 100 nM in assay [2] and 100 to 500 nM in the assay with parental Ba/F3 cell line.
Consider `COc1nc(N2CCC(N3CCN(C)CC3)CC2)ccc1Nc1ncc(Cl)c(Nc2ccccc2S(=O)(=O)NC2CC2)n1` [Example 61], for which the concentration for 50% growth inhibition (GI50) in assay [1] is 2000 to 10000 nM; in assay [2], 2000 to 10000 nM; in the assay with parental Ba/F3 cell line, 500 to 2000 nM.
